Assay results taken from patent US10173968B2, “Bishydrazone-based antifungal agents” (University of Kentucky Research Foundation, priority 2016, dated 2019).
Values after ≈ are worked out from the molar mass of the structure shown. Where two headings read alike, the source gives them in different places.

Key:
VRE (strain D) = type: cell-based, enterococcus
Description: (§1) The bacteria were grown in MH broth at 37° C. for these experiments. […] The resulting cultures were diluted 1:1000 and grown until the culture reached ˜300,000 cfu/mL. That culture was then further diluted 1:1000 and used to determine the next round of MIC values.

[1] = system: P. aeruginosa ATCC 27853 (strain I); type: cell-based
Description: as §1

[2] = system: all bacterial strains tested; experiment: Antibacterial MIC, summary over the panel; type: cell-based; conditions: read-out: MIC, span over all bacterial strains tested
Description: MIC values were determined against a variety of Gram-positive (strains A-D) and Gram-negative (E-J) bacterial and mycobacterial (K) strains using the double-dilution method, as previously published. Preliminary screening was performed using 500 μM of each compound.

[3] = system: L. monocytogenes ATCC 19115 (strain B); type: cell-based, Listeria monocytogenes
Description: as §1

MRSA (strain C) = type: cell-based, Staphylococcus aureus
Description: as §1

B. subtilis 168 = experiment: Antibacterial MIC, double-dilution method; type: cell-based; conditions: Bacillus subtilis, strain A, Gram-positive
In short: (§2)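 The lowest inhibitory concentration is reported from a twofold dilution series, after an initial single-concentration screen with every compound at 500 μM.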

S. enterica ATCC 14028 = experiment: Antibacterial MIC, double-dilution method; type: cell-based; conditions: Salmonella enterica, ATCC14028, strain J, Gram-negative, read-out: MIC
In short: as §2

VRE = experiment: Antibacterial MIC, double-dilution method; type: cell-based; conditions: Enterococcus, strain D, Gram-positive, read-out: MIC
In short: as §2

M. smegmatis MC2-155 = experiment: Antibacterial MIC, double-dilution method; type: cell-based; conditions: Mycolicibacterium smegmatis, MC2155, strain K, mycobacterial, read-out: MIC
In short: as §2

[4] = system: L. monocytogenes ATCC 19115; experiment: Antibacterial MIC, double-dilution method; type: cell-based; conditions: Listeria monocytogenes, ATCC19115, strain B, Gram-positive, read-out: MIC
In short: as §2

E. coli MC1061 = experiment: Antibacterial MIC, double-dilution method; type: cell-based; conditions: Escherichia coli, strain G, Gram-negative, read-out: MIC
In short: as §2

P. aeruginosa ATCC 27853 = experiment: Antibacterial MIC, double-dilution method; type: cell-based; conditions: Pseudomonas aeruginosa, ATCC27853, strain I, Gram-negative, read-out: MIC
In short: as §2

E. cloacae ATCC 13047 = experiment: Antibacterial MIC, double-dilution method; type: cell-based; conditions: Enterobacter cloacae, ATCC13047, strain F, Gram-negative, read-out: MIC
In short: as §2

C. albicans ATCC 64124 = experiment: Antifungal MIC, CLSI M27-A3 microbroth dilution; type: cell-based, Candida albicans; conditions: Candida albicans, ATCC64124, C. albicans ATCC 64124, resistant to FLC, ITC, and VOR, read-out: MIC
Description: (§3) In vitro MIC testing was performed according to the CLSI M27-A3 standard microbroth dilution methodology for the susceptibility testing of yeasts with minor modifications.

C. albicans ATCC 2310 = experiment: Antifungal MIC, CLSI M27-A3 microbroth dilution; type: cell-based, Candida albicans; conditions: Candida albicans, ATCC2310, C. albicans ATCC 2310, susceptible to FLC, ITC, and VOR, read-out: MIC
Description: as §3

C. albicans ATCC 1003 = experiment: Antifungal MIC, CLSI M27-A3 microbroth dilution; type: cell-based, Candida albicans; conditions: Candida albicans, ATCC1003, read-out: MIC
Description: as §3

C. albicans ATCC 2876 = experiment: Antifungal MIC, CLSI M27-A3 microbroth dilution; type: cell-based, Candida albicans; conditions: Candida albicans, ATCC2876, C. albicans ATCC 2876, susceptible to FLC, ITC, and VOR, read-out: MIC
Description: as §3

C. albicans ATCC 10231 [5] = experiment: Antifungal MIC, CLSI M27-A3 microbroth dilution; type: cell-based, Candida albicans; conditions: Candida albicans, ATCC10231, C. albicans ATCC 10231, resistant to FLC, ITC, and VOR, read-out: MIC
Description: as §3

C. albicans ATCC 1237 = experiment: Antifungal MIC, CLSI M27-A3 microbroth dilution; type: cell-based, Candida albicans; conditions: Candida albicans, ATCC1237, C. albicans ATCC 1237, resistant to FLC, ITC, and VOR, read-out: MIC
Description: as §3

C. albicans ATCC 90819 = experiment: Antifungal MIC, CLSI M27-A3 microbroth dilution; type: cell-based, Candida albicans; conditions: Candida albicans, ATCC90819, C. albicans ATCC 90819, resistant to FLC, ITC, and VOR, read-out: MIC
Description: as §3

MRSA = experiment: Antibacterial MIC, double-dilution method; type: cell-based; conditions: Staphylococcus aureus, strain C, Gram-positive, read-out: MIC
In short: as §2

A. baumannii ATCC 19606 = experiment: Antibacterial MIC, double-dilution method; type: cell-based; conditions: Acinetobacter baumannii, ATCC19606, strain E, Gram-negative, read-out: MIC
In short: as §2

K. pneumoniae ATCC 27736 = experiment: Antibacterial MIC, double-dilution method; type: cell-based; conditions: Klebsiella pneumoniae, ATCC27736, strain H, Gram-negative, read-out: MIC
In short: as §2

C. albicans ATCC 10231 [6] = experiment: Intracellular ROS production, DCFH-DA fluorescence assay; type: cell-based, Candida albicans; conditions: positive control at 1 mM, 1 h at 35° C.
Source text: We used the 2′,7′-dichlorodihydrofluorescein diacetate (DCFH-DA) dye as a probe to measure the production of ROS in yeast cells upon treatment with our compounds. DCFH-DA can easily cross the cell membranes and be hydrolyzed by cellular esterases to the non-fluorescent 2′,7′-dichlorodihydrofluorescein (DCFH), which can further be oxidized to the highly fluorescent 2′,7′-dichlorofluorescein (DCF) by the intracellular ROS. Five mL of RPMI 1640 medium were inoculated using a single colony of C. albicans ATCC 10231 (strain A) in a Falcon tube and grown overnight at 35° C. at 200 rpm. The overnight culture was diluted by adding 200 μL of yeast cells to 800 μL of the same medium. […] H2O2 at 1 mM was also used as a positive control. Cells were centrifuged and washed twice with PBS buffer (pH 7.2). Cells were resuspended in the same buffer and incubated with DCFH-DA (20 μg/mL) for 30 min in the dark. Afterwards, cells were centrifuged and washed with PBS buffer to remove excess DCFH-DA. Glass slides with 10-15 μL of each mixture were prepared and observed in bright field and fluorescence modes (FITC filter set, excitation and emission wavelengths of 488 and 512 nm, respectively) using a Zeiss Axovert 200M fluorescence microscope (FIG. 3).

[7] = after 15 serial passages at sub-inhibitory concentrations

Q: Which “development of resistance (passages after which resistance developed)” value (from here on “development of resistance”) (VRE (strain D); up to 15 passages) does the source give for `NCC[C@H](O)C(=O)N[C@@H]1C[C@H](N)[C@@H](O[C@H]2O[C@H](CN)[C@@H](O)[C@H](O)[C@H]2O)[C@H](O)[C@H]1O[C@H]1O[C@H](CO)[C@@H](O)[C@H](N)[C@H]1O` [AMK, amikacin, reference compound] here?
A: 3 passages

Q: And the “development of resistance” value ([1]; up to 15 passages)?
A: 5 passages

Q: What about the MIC [2] of the same molecule?
A: 3.9 to 125 µM (≈ 2.28 to 73.2 µg/mL)

Q: What about the “development of resistance” value ([3]; up to 15 passages) of the same molecule?
A: 15 passages

Q: And the “development of resistance” value (MRSA (strain C); up to 15 passages)?
A: 12 passages

Q: And the MIC (B. subtilis 168; converted from μM)?
A: 3 to 12.2 µg/mL

Q: What about the MIC (B. subtilis 168; range 0.5 to 500 μM) of the same molecule?
A: 3.9 to 15.6 µM

Q: And the MIC (S. enterica ATCC 14028; converted from μM)?
A: 3 to 6.1 µg/mL

Q: And the MIC (S. enterica ATCC 14028; range 0.5 to 500 μM)?
A: 3.9 to 7.8 µM

Q: And the MIC (VRE; converted from μM)?
A: 97.7 µg/mL

Q: What about the MIC (VRE; range 0.5 to 500 μM) of the same molecule?
A: 125 µM

Q: What about the MIC (M. smegmatis MC2-155; converted from μM) of the same molecule?
A: 12.2 µg/mL

Q: What about the MIC (M. smegmatis MC2-155; range 0.5 to 500 μM) of the same molecule?
A: 15.6 µM

Q: And the MIC ([4]; range 0.5 to 500 μM)?
A: 3.9 µM

Q: What about the MIC (E. coli MC1061; converted from μM) of the same molecule?
A: 24.5 µg/mL

Q: And the MIC (E. coli MC1061; range 0.5 to 500 μM)?
A: 31.3 µM

Q: And the MIC (P. aeruginosa ATCC 27853; converted from μM)?
A: 48.9 µg/mL

Q: What about the MIC (P. aeruginosa ATCC 27853; range 0.5 to 500 μM) of the same molecule?
A: 62.5 µM

Q: What about the MIC (E. cloacae ATCC 13047; converted from μM) of the same molecule?
A: 48.9 µg/mL

Q: And the MIC (E. cloacae ATCC 13047; range 0.5 to 500 μM)?
A: 62.5 µM

Q: What does the source list for `C/C(=N\NC(=N)N)c1ccc(CCc2ccc(/C(C)=N/NC(=N)N)cc2)cc1.Cl.Cl` [Compound 4D, (2E,2′E)-2,2′-((Ethane-1,2-diylbis(4,1-phenylene))bis(ethan-1-yl-1-ylidene))bis(hydrazine-1-carboximidamide) dihydrochloride]?
A: increase in relative MIC values (VRE (strain D); [7]): 16 fold; increase in relative MIC values [1, 7]: 4 fold; MIC (C. albicans ATCC 64124; converted from μg/mL): > 69.3 µM; MIC (C. albicans ATCC 64124): > 31.3 µg/mL; MIC (C. albicans ATCC 2310; converted from μg/mL): 69.3 µM; MIC (C. albicans ATCC 2310): 31.3 µg/mL; MIC (C. albicans ATCC 1003; C. albicans ATCC 1003, converted from μg/mL): 34.6 µM; MIC (C. albicans ATCC 1003): 15.6 µg/mL; MIC (C. albicans ATCC 2876; converted from μg/mL): 8.6 µM; MIC (C. albicans ATCC 2876): 3.9 µg/mL; MIC (C. albicans ATCC 10231 [5]; converted from μg/mL): 17.3 µM; MIC (C. albicans ATCC 10231 [5]): 7.8 µg/mL; MIC (C. albicans ATCC 1237; converted from μg/mL): 34.6 µM; MIC (C. albicans ATCC 1237): 15.6 µg/mL; MIC (C. albicans ATCC 90819; converted from μg/mL): 17.3 µM; MIC (C. albicans ATCC 90819): 7.8 µg/mL; increase in relative MIC values [3, 7]: 8 fold; increase in relative MIC values (MRSA (strain C); [7]): 16 fold; MIC (B. subtilis 168; converted from μM): > 226 µg/mL; MIC (B. subtilis 168; range 0.5 to 500 μM): > 500 µM; MIC (S. enterica ATCC 14028; converted from μM): > 226 µg/mL; MIC (S. enterica ATCC 14028; range 0.5 to 500 μM): > 500 µM; MIC (VRE; converted from μM): 0.5 µg/mL; MIC (VRE; range 0.5 to 500 μM): 1 µM; MIC (M. smegmatis MC2-155; converted from μM): 0.5 µg/mL; MIC (M. smegmatis MC2-155; range 0.5 to 500 μM): 1 µM; MIC ([4]; converted from μM): 0.5 µg/mL; MIC ([4]; range 0.5 to 500 μM): 1 µM; MIC (E. coli MC1061; converted from μM): > 226 µg/mL; MIC (E. coli MC1061; range 0.5 to 500 μM): > 500 µM; MIC (MRSA; converted from μM): 0.5 to 0.9 µg/mL; MIC (MRSA; range 0.5 to 500 μM): 1 to 2 µM; MIC (P. aeruginosa ATCC 27853; converted from μM): > 226 µg/mL; MIC (P. aeruginosa ATCC 27853; range 0.5 to 500 μM): > 500 µM; MIC (A. baumannii ATCC 19606; converted from μM): > 226 µg/mL; MIC (A. baumannii ATCC 19606; range 0.5 to 500 μM): > 500 µM; MIC (K. pneumoniae ATCC 27736; converted from μM): > 226 µg/mL; MIC (K. pneumoniae ATCC 27736; range 0.5 to 500 μM): > 500 µM; MIC (E. cloacae ATCC 13047; converted from μM): > 226 µg/mL; MIC (E. cloacae ATCC 13047; range 0.5 to 500 μM): > 500 µM

Q: `OO` [Compound H2O2, H2O2, reference compound] was tested. Which “intracellular ROS production” value (C. albicans ATCC 10231 [6]) did it give?
A: induced ROS production
